According to patent publication EP4653001A1, “TREATMENT, DIAGNOSIS AND/OR PROGNOSIS OF MITOCHONDRIAL DISEASES” (Universidad Autónoma de Madrid, priority 2024, dated 2025):

Key:
Type in all cases: cell-based
[1] = test system: 143B cells; assay: Stable isotope tracing with uniformly labeled 13C-glucose
Procedure: 1-5.0×10^6 cells were harvested on dry ice with 1 mL pre-chilled 80% HPLC-grade methanol (Fluka Analytical). The cell mixture was incubated for 15 min on dry ice prior to centrifugation at 18,000 × g for 10 min at 4°C. The supernatant was retained, and the remaining cell pellet was resuspended in 800 µL chilled 80% methanol and centrifuged. Supernatant was combined with the previous retention and was lyophilized using a SpeedVac (Thermo Fisher). Lyophilized samples were resuspended in 20 µL ultrapure water and subjected to metabolomics profiling using the AB/SCIEX 5500 QTRAP triple quadrupole instrument. Data analysis was performed using the GiTools software. […]
Encouraged by the beneficial effects of ME1 and because ME1-dependent NADPH production is linked to intracellular malate levels, we sought to investigate the metabolic pathways and nutrients that maintain malate production upon disruption of the ETC. It is firmly believed that in cells and tissues with defective ETC function, elevated NADH/NAD+ ratio inhibits the Pyruvate dehydrogenase complex (PDC), suppressing pyruvate entry into the mitochondria and forcing its channelling towards the Lactate Dehydrogenase (LDH) in the cytosol. […] This reaction involves addition of an unlabeled carbon by IDH2 acting in reverse relative to the canonical oxidative TCA cycle. Malate M+3 also rose more than a ~2-fold in CI-inhibited cells and was likely formed after cleavage of citrate M+5 by ATP-citrate lyase (ACLY) since this induction was blunted in ACLY KO cells. […] We hypothesized that an alternative mechanism could involve pyruvate entry into the mitochondria where it can be carboxylated to OAA by the pyruvate carboxylase (PC). […] To examine the contribution of PC to malate formation in the context of ETC dysfunction, control and PC KO cells were cultured with uniformly labeled [^13C]glucose and treated either with DMSO or Piericidin. In this labeling scheme, oxidative metabolism of glucose-derived pyruvate would give rise to TCA cycle intermediates with M+2 labeling as CO2 is removed during conversion of pyruvate to acetyl-CoA by pyruvate dehydrogenase (PDH). By contrast, carbon labels are retained if pyruvate is carboxylated by PC and would generate M+3 intermediates (Figure 3A). […] Malate and aspartate M+3/M+2 ratios, which reflect the relative contribution of PC versus PDH to metabolite labeling, were ~7-fold and ~10-fold higher respectively, in cells treated with Piericidin (Figure 3B and C). […] In this regard, it is not surprising that PC activity is favoured over PDH when the ETC is defective as it is not regulated by NADH levels.

[2] = test system: 143B cells; assay: Metabolomics of intracellular metabolites in 143B cells; conditions: 48 h
Procedure: (§1) 1-5.0×10^6 cells were harvested on dry ice with 1 mL pre-chilled 80% HPLC-grade methanol (Fluka Analytical). The cell mixture was incubated for 15 min on dry ice prior to centrifugation at 18,000 × g for 10 min at 4°C. The supernatant was retained, and the remaining cell pellet was resuspended in 800 µL chilled 80% methanol and centrifuged. Supernatant was combined with the previous retention and was lyophilized using a SpeedVac (Thermo Fisher). Lyophilized samples were resuspended in 20 µL ultrapure water and subjected to metabolomics profiling using the AB/SCIEX 5500 QTRAP triple quadrupole instrument. Data analysis was performed using the GiTools software. 13C-labeled glutamine and glucose was acquired in SIGMA (605166 and 389374).
Next, we conducted time-course experiments to gain further knowledge on the metabolic determinants underlying the observed synthetic lethality between PPP and OXPHOS. 143B cells were treated either with Piericidin or G6PDi (selective inhibitor of G6PD) alone or the combination of both and cell proliferation was quantified over the course of 96 h. […] Conversely, dual inhibition produced a marked reduction in cell survival beyond 48 h of treatment that was even more accentuated at 96 h (Figure 2A). […]

[3] = test system: PC KO and ACLY KO cells; assay: Intracellular malate levels in PC KO and ACLY KO 143B cells; conditions: double ablation of PC and ACLY, 100 nM, 72 h
Procedure: as §1
To assess the relative contribution of PC and ACLY to cell death phenotype in ETC deficient cells upon PPP inhibition, we treated PC KO and ACLY KO cells with Piericidin, G6PDi or both. […] A plausible explanation for the lack of phenotype in both PC and ACLY KO cells could be the upregulation of compensatory mechanisms whereby PC depletion would cause an enhanced rerouting of glutamine through ACLY and vice versa. […]

[4] = test system: mouse cortical neurons; assay: ATP measurement in neurons (ATP Assay Kit); conditions: CI-inhibited neurons, 100 nM, 24 h
Procedure: Primary cultures of C57BL/6 mouse cortical neurons were prepared from embryos between embryonic days 16.5 and 17.5 and seeded onto pre-treated plates coated with Poly-L-lysine hydrobromide (500 µg/ml). We used Neurobasal medium without D-glucose and sodium pyruvate (ThermoFisher) to modulate D-glucose levels, depending on the experiment (2.5 mM, 5 mM, or 25 mM).
In standard experiments, we utilized Neurobasal medium with 25 mM D-glucose, 1 mM sodium pyruvate (ThermoFisher), B27 plus supplement (GIBCO), GlutaMax I 100X (GIBCO), and 1% penicillin/streptomycin (P/S). Starting from day 6 in vitro (DIV6), half of the medium was replaced every 3-4 days, omitting GlutaMax I.
ATP Assay Kit (Abcam, #ab83355) was used to analyze ATP levels. Briefly, Cells were seeded in M24 plates (neurons at 500,000 cells/mL and monolayer density for astrocytes), and for the ATP experiments, three wells per condition were combined. An alternative deproteinization protocol was applied to purify the samples, and a Colorimetric Assay was conducted as outlined in the original protocol. The measurements were obtained using the CLARIOstar Plus plate reader from BMG LABTECH.

[5] = uniformly labeled [13C]glucose, vs DMSO

CC=C(C)C(O)C(C)C=C(C)C=CCC(C)=CCc1nc(OC)c(OC)c(O)c1C (centres unmarked) [Piericidin, Piericidin A]
PDH-dependent labeling of aspartate and malate ([1]; control and PC KO cells): clearly reduced | PC-mediated labeling of TCA cycle intermediates ([1]; particularly aspartate and malate): marked induction | Malate M+3/M+2 ratio, higher [1, 5]: ~ 7 fold | aspartate M+3/M+2 ratio, higher [1, 5]: ~ 10 fold | NADH [2]: accumulation | intracellular levels of NADPH [2]: did not exert significant changes | intracellular malate levels [3]: parallel decrease | ATP levels [4]: maintained
